A short description of data set [1]: Appearance of PAI salts under destructive conditions. The class given is physicochemical. As for the experimental part:
Comparative stability studies were carried out under sets of several accelerating conditions: I) heating at 80° C. for 72, 96 or 144 hours; and II) reflux in isopropanol for 30 hours. The degradation products developed were measured by HPLC and confirmed by TLC. The results are presented in Table 9 with the relative retention time (relative to the PAI peak; RRT) as an area percentage relative to ? integrated peak area.
The salts were submitted to visual inspection of color an form.

Data set [2] can be described thus: Physicochemical properties of PAI salts. Particulars: for pH: 1% aqueous solution of the PAI salt.
Experimental: The melting range was measured with an automatic apparatus (Mettler FP 80) and thermo-gravimetric analysis was performed on a Mettler TA 3000 system at a rate of 10° C./min in the applicable range. […] The pH was measured in a 1% aqueous solution of the PAI salts.
Data set [3] relates to haloperidol-induced catalepsy in mice. As to the kind of experiment: Reversal of haloperidol-induced catalepsy in mice. The class given is in vivo, mouse. Particulars: for Score + SE: haloperidol 6 mg/kg s.c., max score 12; for % of control: score vs saline control. As for the experimental part:
All drugs were administered i.p. in a volume of 0.2 mL. Two hours later, haloperidol was injected s.c. at a dose of 6 mg/kg in a volume of 0.1-0.2 mL. Motor coordination tests were made at 3 hours after giving haloperidol, that is, 5 hours after administering the presumed protective drugs.
Motor coordination tests and rigidity were quantified according to three different parameters: (a) ability to walk the length of a horizontal rod, 80 cm-long; (b) ability to climb down, face down, a vertical rod, 80 cm-long; (c) duration of immobility in an unnatural sitting posture whereby the abdomen of the mouse is pressed against a “wall.” Full performance as in haloperidol-untreated mice is given the score of 4 in each test, or a total of 12 in all tests. Poor performance is given a score from 1 to 3.

Data set [4] relates to α-MpT-induced hypokinesia in rats. As to the kind of experiment: Reversal of α-MpT-induced hypokinesia in rats. The format is in vivo, rat. Particulars: for Score + SE (total motor activity, 10 hours): α-MpT 100 mg/kg i.p. As for the experimental part:
The drug α-MpT is assumed to inhibit the formation of L-DOPA from tyrosine, and consequently the formation of dopamine itself. Lack of CNS dopamine is expressed as hypoactivity. […] Two hours later they received i.p. α-MpT at a dose of 100 mg/kg in 0.3-0.5 mL. Controls received saline. Following this, motor activity was recorded in a computerized activity cage for the duration of 10 hours.

The next data set deals with T1, MAO-A (Rattus norvegicus, UniProt P21396).
T1 construct: MAO activity determined in brain and liver; from tissue; host or cells: brain and liver of male Sprague-Dawley-derived rats
T1 sequence (P21396 1-526): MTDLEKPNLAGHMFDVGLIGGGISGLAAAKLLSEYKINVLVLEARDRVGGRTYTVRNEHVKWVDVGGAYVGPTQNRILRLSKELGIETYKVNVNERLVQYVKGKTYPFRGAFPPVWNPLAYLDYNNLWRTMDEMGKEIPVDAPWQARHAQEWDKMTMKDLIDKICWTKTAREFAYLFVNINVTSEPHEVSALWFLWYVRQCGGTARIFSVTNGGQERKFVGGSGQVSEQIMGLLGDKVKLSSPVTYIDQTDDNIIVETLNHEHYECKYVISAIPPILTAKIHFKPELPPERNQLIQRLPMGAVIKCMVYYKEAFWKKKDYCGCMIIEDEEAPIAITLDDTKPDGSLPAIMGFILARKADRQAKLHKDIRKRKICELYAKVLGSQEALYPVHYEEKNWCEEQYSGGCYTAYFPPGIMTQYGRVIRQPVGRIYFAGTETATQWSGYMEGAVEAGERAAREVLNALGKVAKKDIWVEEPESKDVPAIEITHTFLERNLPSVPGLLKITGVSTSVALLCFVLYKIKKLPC
The data set can be described thus: Inhibition of MAO activity in vivo, acute treatment, MAO-A. The conditions noted are these: rat.

For data set [5], the system named is cardiovascular effects in animals. The conditions noted are these: cited from earlier work.
Another data set has as its target T2, MAO-B (Rattus norvegicus, UniProt P19643).
T2 sequence (P19643 1-520): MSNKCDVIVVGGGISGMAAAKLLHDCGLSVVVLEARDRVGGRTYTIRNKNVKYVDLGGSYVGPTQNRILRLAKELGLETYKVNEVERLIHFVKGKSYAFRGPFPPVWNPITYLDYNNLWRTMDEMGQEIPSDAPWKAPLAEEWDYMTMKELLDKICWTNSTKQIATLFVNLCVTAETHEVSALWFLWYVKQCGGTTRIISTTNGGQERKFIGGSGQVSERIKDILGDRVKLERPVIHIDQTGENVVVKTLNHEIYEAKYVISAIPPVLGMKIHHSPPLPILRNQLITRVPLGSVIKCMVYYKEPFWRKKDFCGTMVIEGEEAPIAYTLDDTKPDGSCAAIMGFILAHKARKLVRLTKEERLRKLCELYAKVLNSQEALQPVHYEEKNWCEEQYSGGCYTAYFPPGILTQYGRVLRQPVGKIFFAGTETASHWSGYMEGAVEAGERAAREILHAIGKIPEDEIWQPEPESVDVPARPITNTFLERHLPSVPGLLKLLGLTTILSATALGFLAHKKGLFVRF
As to the kind of experiment: Inhibition of MAO activity in vivo, acute treatment, MAO-B. Set-up: in a rat brain preparation of MAO; host or cells: rat brain preparation.

For data set [6], the system named is maximal electroshock seizures in rats. As to the kind of experiment: Maximal electroshock test (MES test) in rats. The format is in vivo, rat. Particulars: p.o., 50 mg/kg. An excerpt:
The MES test is a classical model to indicate efficacy for partial and generalized seizures in humans. The agents' mechanism of action is via their ability to prevent the spread of seizures. Some agents, however, that prevent seizure spread have the side effect of lowering seizure threshold. These agents therefore have both proconvulsive and anticonvulsive side effects.
(In general: Protection in the maximal electroshock model is a classic sign of anticonvulsant action.)

For the next data set, the system named is guinea-pig ileum. The data set can be described thus: Antagonism of bethanechol-induced (fixed dose) contractions of guinea-pig ileum. The conditions noted are these: bethanechol 0.8 μM.
Data set [7] deals with neonatal rat cerebellum cell cultures. Particulars: 0.01 μM + NMDA. The procedure: Procedures: cultures of mechanically dissociated neonatal rat cerebellum. […] The cerebella are then dissociated after 20-25 passages through a sterile 13 gauge, 10 cm long stainless steel needle attached to a 5 ml syringe with an inserted 45 μm pore size nylon sieve. The dissociated cells are centrifuged at 200 g for 5 minutes, the supernatant discarded and the cells resuspended in enriched medium. The cell viability is determined by the trypan blue exclusion test. […] After 4 days in culture, the media are replaced with media containing the desired test compounds. Experiments are done in duplicate and repeated 2 or 3 times. […] Nerve cell survival is evaluated by phase contrast microscopy and trypan blue staining after 24 h.
Values, expressed as the percent of untreated controls, represent the average of 2 experiments run in duplicate for culture experiments, and the mean±SEM of 4 animals for ischemia. The percent protection value is the effect of the test compound after subtraction of the solvent effect.

Structures can show the parent of a compound that is named as a salt. Where only a bound is given, the exact number is not on record here.

As to `C#CCN[C@@H]1CCc2ccccc21.CCS(=O)(=O)O` [esylate], the “appearance: color” value in data set [1] (80° C./72 h) was “brownish”; in data set [1] (80° C./144 h), “dark brown”; in [1] (reflux in iPrOH/30 h), “dark brown”. Also, the “appearance: form” value in data set [1] (80° C./72 h), in data set [1] (80° C./144 h) and in [1] (reflux in iPrOH/30 h) was “melted” in each case. Further, the pH in data set [2] came to 2.4.
In the case of `C#CCNC1CCc2ccccc21` (racemic) [Rac PAI Mesylate], the “Score + SE” value in data set [3] (3.0 mg/kg i.p. (free base)) amounted to 5.9 ± 0.7; in data set [3] (5.0 mg/kg i.p. (free base)) it was 6.4 ± 0.4; in [3] (10 mg/kg i.p. (free base)) it was 9.2 ± 0.6; in data set [3] (15 mg/kg i.p. (free base)), 8.8 ± 0.8. The “% of control” value in data set [3] (3.0 mg/kg i.p.) is reported as 49%; in data set [3] (5.0 mg/kg i.p.), 53%; in [3] (10 mg/kg i.p.) it was 77%; in data set [3] (15 mg/kg i.p.), 73%; in data set [4] (2 mg/kg i.p., vs saline control), 57%. The “protection against haloperidol (in words)” value in [3] (5 mg/kg) was “not active”. Further, the “restoration of motor activity (in words)” value in [4] (2 mg/kg) is “not active”. The “Score + SE (total motor activity, 10 hours)” value in data set [4] (2 mg/kg i.p.) was 9,035 ± 829; in data set [4] (5 mg/kg i.p.), 10,926 ± 820; in [4] ([…] i.p.), 9,698 ± 557.
In the case of `C#CCNC1CCc2ccccc21` (racemic) [Rac, N-propargyl-1-aminoindan], the “IC-50 MAO-A” value at MAO-A (I.P., liver, 1 h after dose) was 5 mg/kg; at MAO-A (P.O., brain, 2 h after dose) it was more than 5 mg/kg; against MAO-A (P.O., liver, 2 h after dose), more than 5 mg/kg. The blood pressure result in [5] (comparative animal tests) is “does not increase blood pressure”. In addition, the tachycardia entry in data set [5] (comparative animal tests) is given as “no significant tachycardia”. In addition, the “IC-50 MAO-B” value at MAO-B (I.P., brain, 1 h after dose) came to 0.22 mg/kg; at MAO-B (I.P., liver, 1 h after dose), 0.11 mg/kg; against MAO-B (P.O., liver, 2 h after dose), 0.09 mg/kg.
As to `C#CCN[C@@H]1CCc2ccccc21.Cl` [(R)-PAI HCl, R-(+)-N-Propargyl-1-aminoindan hydrochloride], in [6], the “animals protected from seizures” value is on record as “three out of four”. The Percent relaxation with guinea-pig ileum (PAI concentration 20 μM) was 25; with guinea-pig ileum (PAI concentration 60 μM), 25-50; with guinea-pig ileum (PAI concentration 100 μM), 50-70; in the data set with guinea-pig ileum (PAI concentration 300 μM), 100.
Take maleate: the “appearance: color” value in data set [1] (80° C./72 h), in data set [1] (80° C./96 h) and in data set [1] (reflux in iPrOH/30 h) was “brown” each time. In addition, the “appearance: form” value in data set [1] (80° C./72 h) and in data set [1] (reflux in iPrOH/30 h) was “melted” each time.
As to `NCCCNCCCCNCCCN` [Spermine, reference compound], the “Surviving Cells (percent of untreated controls)” value in data set [7] turned out to be 75. Further, the “Percent Protection” value in [7] (after subtraction of solvent effect) came to 65.
Regarding `C#CCN[C@@H]1CCc2ccccc21.C#CCN[C@@H]1CCc2ccccc21.O=S(=O)(O)O` [sulphate], the “appearance: color” value in [1] (80° C./72 h) was “off white”; in [1] (80° C./144 h), “off white”; in [1] (reflux in iPrOH/30 h), “brown”. Further, the “appearance: form” value in data set [1] (80° C./72 h), in data set [1] (80° C./144 h) and in [1] (reflux in iPrOH/30 h) was “powder” each time. Further, in data set [2], the pH worked out at 3.9. Further, the “% Wt. loss” value in data set [2] (thermo-gravimetric analysis, 10° C./min) is 3.2%.
`Cl` [chloride]: the “appearance: color” value in data set [1] (80° C./72 h) is on record as “white”; in data set [1] (80° C./144 h), “white”; in [1] (reflux in iPrOH/30 h), “off white”. Moreover, the “appearance: form” value in data set [1] (80° C./72 h), in [1] (80° C./144 h) and in data set [1] (reflux in iPrOH/30 h) was “powder” throughout.
With `C#CCNC1CCc2ccccc21.Cl` (racemic) [racemic PAI.HCl, Racemic N-propargyl-1-aminoindan hydrochloride], in data set [5] (Finberg et al.), the “potentiation of the cardiovascular effects of tyramine” value is recorded as “does not potentiate”.
Take phosphate: the “appearance: color” value is on record as “brownish” in [1] (80° C./72 h), “brown” in [1] (80° C./144 h) and “brown” in [1] (reflux in iPrOH/30 h). The “appearance: form” value in [1] (80° C./72 h), in data set [1] (80° C./144 h) and in data set [1] (reflux in iPrOH/30 h) was “powder” throughout. The pH in data set [2] was found to be 7.0.
